In paper PMC11401813, “Grewiifopenes A–K, bioactive clerodane diterpenoids from Casearia grewiifolia Vent” (Natural Products and Bioprospecting, 2024):
In brackets after ≈: the same amount, converted by molar mass. Like-named read-outs stand apart in the source and are kept apart here.

What was measured:
[1] = test system: MOLT-3 (acute lymphoblastic leukemia); assay: Cytotoxicity, XTT method, MOLT-3; format: cell-based; settings: Homo sapiens
Experimental: (§1) The in vitro cytotoxicity assay toward a panel of human cancer cell lines of several clerodane diterpenoids has been well investigated. Thus, the isolates in adequate amounts were tested against MOLT-3 (acute lymphoblastic leukemia), HuCCA-1 (cholangiocarcinoma), HepG2 (hepatocellular carcinoma), A549 (lung adenocarcinoma), HeLa (cervical carcinoma), and MDA-MB-231 (triple negative breast cancer) cancer cell lines using the MTT and XTT methods. Doxorubicin and etoposide were used as positive controls.
(§2) The MTT (3-(4,5-dimethylthiazol-2-yl)-2,5-diphenyltetrazolium bromide) assay was employed for the cytotoxic evaluation against five human cancer cell lines, including HepG2, A549, MDA-MB-231, HeLa, and HuCCA-1, while the XTT (2,3-bis-(2-methoxy-4-nitro-5-sulphenyl)-(2H)-tetrazolium-5-carboxanilide) method was used for MOLT-3 cancer cell.

[2] = test system: HuCCA-1 (cholangiocarcinoma); assay: Cytotoxicity, MTT assay, HuCCA-1; format: cell-based, human; settings: Homo sapiens
Experimental: as §1, §2

[3] = test system: A549 (lung adenocarcinoma); assay: Cytotoxicity, MTT assay, A549; format: cell-based, human; settings: Homo sapiens, A549, A549 cell line, mean ± s.d. (n = 3)
Experimental: as §1, §2

[4] = test system: HeLa (cervical carcinoma); assay: Cytotoxicity, MTT assay, HeLa; format: cell-based, human; settings: Homo sapiens, HeLa, read-out: IC50, HeLa
Experimental: as §1, §2

[5] = test system: MDA-MB-231 (triple negative breast cancer); assay: Cytotoxicity, MTT assay, MDA-MB-231; format: cell-based, human
Experimental: as §1, §2

[6] = test system: HepG2 (hepatocellular carcinoma); assay: Cytotoxicity, MTT assay, HepG2; format: cell-based, human; settings: Homo sapiens
Experimental: as §1, §2

[7] = test system: Staphylococcus aureus (ATCC 6538); assay: Antibacterial broth microdilution (MIC/MBC), S. aureus; format: cell-based; settings: ATCC6538
Experimental: (§3) In addition, the isolates were also evaluated for their antibacterial activity towards three strains including Bacillus cereus (ATCC 11778), Staphylococcus aureus (ATCC 6538) and Staphylococcus epidermidis (ATCC 12228) using penicillin G and gentamicin as the antibiotic controls (Table 5). […] Finally, the inhibitory activity of aromatase by using a CYP19 screening kit was investigated. The aromatase (also called estrogen synthase) is responsible for converting the non-aromatic ring A of androgens to estrogens, which are related to the proliferation of breast cancer cells.
(§4) The tested strains, Staphylococcus aureus (S. aureus) ATCC6538, Staphylococcus epidermidis (S. epidermidis) ATCC12228, and Bacillus cereus (B. cereus) ATCC11778 were obtained from the American Type Culture Collection (ATCC).
(§5) All tested species were grown on Mueller Hinton Agar (MHA) and incubated at 37 °C for 18–24 h. The bacterial colonies suspension in sterile normal saline was diluted until they reached a 1 × 10^6 CFC/mL concentration, which was then compared to the McFarland scale. This step provided a standard bacterial suspension (1 × 10^6 CFU/mL), which was used for the following assays.
(§6) The broth microdilution technique was used for the MIC and MBC determination, which was expressed according to Clinical and Laboratory Standards Institute (CLSI) standard M07 guideline. The compounds were prepared as a stock solution by dissolving in dimethyl sulfoxide (DMSO) with the concentration ranging from 0.195 to 200 µg/mL. DMSO and penicillin G or gentamicin were used as normal and standard drug control. […] Three replicates were performed for each experiment.

[8] = test system: Staphylococcus epidermidis (ATCC 12228); assay: Antibacterial broth microdilution (MIC/MBC), S. epidermidis; format: cell-based; settings: ATCC12228
Experimental: as §3, §4, §5, §6

[9] = test system: Bacillus cereus (ATCC 11778); assay: Antibacterial broth microdilution (MIC/MBC), B. cereus; format: cell-based; settings: for MBC / MIC: Bacillus cereus, ATCC11778
Experimental: as §3, §4, §5, §6

aromatase (CYP19) = target: T1, aromatase (CYP19) (Homo sapiens, UniProt P11511); assay: Aromatase (CYP19) inhibition assay; format: biochemical; settings: for inhibition at 12.5 µM: at a concentration of 12.5 µM; for Aromatase inhibitory activity (in words): at the concentration up to 12.15 µM
T1 construct: purchased
T1 sequence (P11511 1-503): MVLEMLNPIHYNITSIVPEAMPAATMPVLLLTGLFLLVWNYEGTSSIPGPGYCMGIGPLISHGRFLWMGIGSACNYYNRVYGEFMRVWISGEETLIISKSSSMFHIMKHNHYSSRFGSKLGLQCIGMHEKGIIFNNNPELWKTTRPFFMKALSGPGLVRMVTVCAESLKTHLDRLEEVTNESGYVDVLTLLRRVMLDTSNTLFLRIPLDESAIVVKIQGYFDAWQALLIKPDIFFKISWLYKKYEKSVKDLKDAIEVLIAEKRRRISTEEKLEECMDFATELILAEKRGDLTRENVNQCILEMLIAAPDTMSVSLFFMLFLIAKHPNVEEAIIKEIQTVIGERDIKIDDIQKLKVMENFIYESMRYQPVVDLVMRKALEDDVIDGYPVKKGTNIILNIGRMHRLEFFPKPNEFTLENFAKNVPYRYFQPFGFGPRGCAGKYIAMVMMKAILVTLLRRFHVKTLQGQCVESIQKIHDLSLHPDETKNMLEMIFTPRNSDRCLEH
Experimental: as §3
The aromatase assay used a method previously designed by Stresser and co-workers.

[10] = test system: MOLT-3, HuCCA-1, HepG2, A549, HeLa, and MDA-MB-231 cancer cell lines; assay: Cytotoxicity toward panel of human cancer cell lines (MTT and XTT); format: cell-based; settings: Homo sapiens, read-out: IC50 range over the cancer cell line panel
Text: The in vitro cytotoxicity assay toward a panel of human cancer cell lines of several clerodane diterpenoids has been well investigated. […] Doxorubicin and etoposide were used as positive controls.

[11] = MOLT-3 cell line, XTT, mean ± s.d. (n = 3), read-out: IC50, MOLT-3
[12] = HuCC-A1, HuCCA-1 cell line, MTT, mean ± s.d. (n = 3), read-out: IC50, HuCCA-1
[13] = HeLa cell line, MTT, mean ± s.d. (n = 3)
[14] = Homo sapiens, MDA-MB-231, MDA-MB-231 cell line, MTT, mean ± s.d. (n = 3), read-out: IC50, MDA-MB-231
[15] = HepG2, HepG2 cell line, MTT, mean ± s.d. (n = 3), read-out: IC50, HepG2
[16] = MDA-MB-231 cell line, MTT, mean ± s.d. (n = 3), read-out: IC50, MDA-MB-231
[17] = range over all cell lines tested

Row | MIC [7] | MIC [8] | MIC [9] | inhibition at 12.5 µM (aromatase (CYP19)) | Aromatase inhibitory activity (in words) (aromatase (CYP19)) | Compound | IC50 [1, 11] | IC50 [2, 12] | IC50 [3] | IC50 [4, 13] | IC50 [5, 14] | IC50 [6, 15] | MBC [7] | MBC [8] | MBC [9] | other results
1 | > 200 µg/mL | > 200 µg/mL | > 200 µg/mL | 0% | did not show activity | COC1=CC(=O)C=C(OC)C1(O)CC(C)=O [Compound 20, 4-acetonyl-3,5-dimethoxy-p-quinol] | 10000 ± 3500 nM | 111 ± 2.2 µM | 125 ± 4.7 µM | 132 ± 3.8 µM | 24.4 ± 1.2 µM | 122 ± 11.3 µM | > 200 µg/mL | > 200 µg/mL | > 200 µg/mL | 
2 | > 200 µg/mL | > 200 µg/mL | 12.5 µg/mL (≈ 24.8 µM) | 25% | did not show activity | C=CC(=C)CC[C@]1(C)[C@H](C)C[C@H](OC)[C@@]23C(=C[C@H](OC(=O)[C@@H](C)CC)C[C@@H]12)[C@@H](OC)O[C@H]3OC(C)=O [Compound 11, balanspene F] | 5000 ± 1700 nM | 3.3 ± 0.4 µM | 3 ± 0.4 µM | 10.3 ± 0.5 µM | 11.4 ± 0.5 µM | 14.3 ± 1.5 µM | > 200 µg/mL | > 200 µg/mL | 25 µg/mL (≈ 49.5 µM) | MBC, B. cereus (ATCC 11778) [9]: 25 µg/mL (≈ 49.5 µM)
3 | > 200 µg/mL | > 200 µg/mL | 100 µg/mL (≈ 188 µM) | 31% | did not show activity | C=CC(=C)CC[C@]1(C)[C@H]2C[C@H](OC(=O)CC(C)C)C=C3[C@H](OC(C)=O)O[C@H](OC(C)=O)[C@@]32[C@H](OC)C[C@@H]1C [Compound 9, caseargrewiin A] | 3000 ± 200 nM | 5.2 ± 0.4 µM | 5 ± 0.5 µM | 5.2 ± 0.1 µM | 8.1 ± 0.4 µM | 9.5 ± 0.8 µM | > 200 µg/mL | > 200 µg/mL | 100 µg/mL (≈ 188 µM) | 
4 | > 200 µg/mL | > 200 µg/mL | > 200 µg/mL | 15% | did not show activity | C=CC(=C)CC[C@]1(C)[C@H](C)[C@@H](OC(C)=O)[C@H](OC(C)=O)[C@@]23C(=C[C@H](OC(=O)CC(C)C)C[C@@H]12)[C@@H](OC(C)=O)O[C@H]3OC(C)=O [Compound 3, Grewiifopene C] | 2700 ± 300 nM | 3.9 ± 0.2 µM | 5.1 ± 1.1 µM | 5.3 ± 0.1 µM | 8.4 ± 0.1 µM | 13.2 ± 0.5 µM | > 200 µg/mL | > 200 µg/mL | > 200 µg/mL | 

Second part, the compound before the results:

Row | Compound | MIC [7] | MIC [8] | MIC [9] | inhibition at 12.5 µM (aromatase (CYP19)) | Aromatase inhibitory activity (in words) (aromatase (CYP19)) | IC50 [1, 11] | IC50 [2, 12] | IC50 [3] | IC50 [4, 13] | IC50 [5, 14] | IC50 [6, 15] | MBC [7] | MBC [8] | MBC [9] | other results
5 | C=CC(=C)CC[C@]1(C)[C@H](C)C[C@H](O)[C@@]23C(=C[C@H](OC(=O)[C@@H](C)CC)C[C@@H]12)[C@@H](OC(C)=O)O[C@H]3OC(C)=O [Compound 7, isocaseamembrin E] | 25 µg/mL (≈ 48.2 µM) | 100 µg/mL (≈ 193 µM) | 6.25 µg/mL (≈ 12.1 µM) | 0% | did not show activity | 1400 ± 200 nM | 0.7 ± 0.1 µM | 0.3 ± 0.02 µM | 0.9 ± 0.1 µM | 2 to 2.2 µM | 1.9 ± 0.4 µM | 50 µg/mL (≈ 96.4 µM) | > 200 µg/mL | > 200 µg/mL | IC50 [5, 16]: 2 ± 0.2 µM; IC50 [10, 17]: 300 to 2900 nM
6 | C=CC(C)=CCC1(C)C(C)CC(O)C23C(=CC(OC(=O)C(C)CC)CC12)C(OC(C)=O)OC3OC(C)=O (centres unmarked) [Compound 16, Grewiifopene I] |  |  |  |  |  |  |  |  |  |  |  |  |  |  | IC50 ([1]; MOLT-3, read-out: IC50, MOLT-3): 1200 ± 200 nM; IC50 ([2]; HuCC-A1, read-out: IC50, HuCCA-1): 0.7 ± 0.02 µM; IC50 [4]: 0.8 ± 0.1 µM; IC50 ([5]; Homo sapiens, MDA-MB-231, read-out: IC50, MDA-MB-231): 2 ± 0.1 µM; IC50 ([6]; HepG2, read-out: IC50, HepG2): 2.9 µM; IC50 [10]: 300 to 2900 nM
7 | C=CC(=C)CC[C@]1(C)[C@H](C)C[C@H](O)[C@@]23C(=C[C@H](OC(=O)CC(C)C)C[C@@H]12)[C@@H](OC(C)=O)O[C@H]3OC(C)=O [Compound 8, corymbulosin X] | > 200 µg/mL | > 200 µg/mL | 25 µg/mL (≈ 48.2 µM) |  |  | 1200 ± 200 nM | 0.4 ± 0.1 µM | 0.6 ± 0.1 µM | 1.8 ± 0.2 µM | 2 to 2.2 µM | 2.4 ± 0.1 µM | > 200 µg/mL | > 200 µg/mL | 50 µg/mL (≈ 96.4 µM) | IC50 [5, 16]: 2.2 ± 0.1 µM; IC50 [10, 17]: 300 to 2900 nM
8 | C=CC(=C)CC[C@]1(C)[C@H](C)[C@@H](OC(=O)CC(C)C)[C@H](O)[C@@]23C(=C[C@H](OC(=O)CC(C)C)C[C@@H]12)[C@@H](OC(C)=O)O[C@H]3OC(C)=O [Compound 12, Grewiifopene E] |  |  |  | 0% | did not show activity | 1700 ± 400 nM | 4.4 ± 0.4 µM | 3.6 ± 0.04 µM | 3.8 ± 0.6 µM | 7.6 ± 0.9 µM | 8.9 ± 0.3 µM |  |  |  | 
